Consider twelve compounds from ChEMBL document CHEMBL1138376, “Identification of a series of highly potent activators of the Nurr1 signaling pathway” (Bioorg Med Chem Lett, 2007).

The target of series [1] is T1, Nuclear receptor subfamily 4 group A member 2 (Homo sapiens, UniProt P43354). In words: Activation of Nurr1 expressed in MN9D cells by luciferase reporter gene assay relative to control. It counts as cell-based. On the set-up: concentration or dose not given beside the values.
Series [2] has as its target T1, Nuclear receptor subfamily 4 group A member 2. In words: Activation of Nurr1 expressed in MN9D cells by luciferase reporter gene assay. In kind it is cell-based. For orientation: Reporter assays use an easily measured gene product as a stand-in for the process of interest.
Series [3] in a line: Bioavailability in mouse at 10 umol/kg, po. It counts as ADME, organism-based. The conditions noted are these: in vivo.

T1 sequence (P43354 whole entry): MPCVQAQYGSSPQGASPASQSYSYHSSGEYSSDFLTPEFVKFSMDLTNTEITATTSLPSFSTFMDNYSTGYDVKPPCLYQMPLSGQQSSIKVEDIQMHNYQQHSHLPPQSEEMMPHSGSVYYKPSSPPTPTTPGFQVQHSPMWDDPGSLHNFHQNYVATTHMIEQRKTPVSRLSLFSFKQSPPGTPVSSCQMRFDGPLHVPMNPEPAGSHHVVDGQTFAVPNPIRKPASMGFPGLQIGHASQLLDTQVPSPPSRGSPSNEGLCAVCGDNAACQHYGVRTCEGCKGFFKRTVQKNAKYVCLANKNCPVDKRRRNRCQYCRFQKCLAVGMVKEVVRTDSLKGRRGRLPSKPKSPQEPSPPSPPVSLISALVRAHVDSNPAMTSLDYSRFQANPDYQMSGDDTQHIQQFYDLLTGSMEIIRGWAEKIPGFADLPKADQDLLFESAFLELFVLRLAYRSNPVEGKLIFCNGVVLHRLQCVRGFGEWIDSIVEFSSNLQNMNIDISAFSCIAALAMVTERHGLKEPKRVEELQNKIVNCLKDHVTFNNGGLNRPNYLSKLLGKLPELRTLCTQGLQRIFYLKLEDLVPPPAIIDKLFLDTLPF

Take `Cn1c(-c2ccc(COCCO)cc2)cc2onc(-c3ccccc3)c2c1=O`: the Activity in series [1] is 226%. Moreover, a half-maximal response in series [2] (EC50) required 3.5 nM.
For `COc1ccc(-c2cc3onc(-c4ccccc4)c3c(=O)n2C)c(OC)c1`, in that order: 202% and 59.2 nM.
The corresponding values for `CC(C)OCCOCc1ccc(-c2cc3onc(-c4ccccc4)c3c(=O)n2C)cc1` are 173% and 113 nM.
For `COc1ccc(-c2cc3onc(-c4ccccc4)c3c(=O)n2C)cc1`, in that order: 185% and 4.1 nM.
In the case of `Cn1c(-c2ccncc2)cc2onc(-c3ccccc3)c2c1=O`, in series [1], the Activity is 198%. Further, in series [2], a half-maximal effect (EC50) was put at 130 nM.
For `CN1CCN(Cc2ccc(-c3cc4onc(-c5ccccc5)c4c(=O)n3C)cc2)CC1`, in that order: 163% and 31.9 nM.
For `O=c1[nH]c(-c2ccccc2)cc2onc(-c3ccccc3)c12` [ISOXAZOLOPYRIDINONE], in that order: 207% and 77.5 nM.
Consider `Cn1c(-c2ccc(Oc3ccccc3)cc2)cc2onc(-c3ccccc3)c2c1=O`, for which, in series [2], the EC50 – broadly, the midpoint of the concentration-response curve – was > 2000 nM.
`Cc1cc2onc(-c3ccccc3)c2c(=O)n1C`: in series [2], the EC50 was > 2000 nM.
For the compound `COCCOCc1ccc(-c2cc3onc(-c4ccccc4)c3c(=O)n2C)cc1`, the bioavailability (in general, the share of a dose that reaches the circulation, judged against a reference dose that is usually intravenous) in series [3] amounted to 95%. Moreover, the Activity in series [1] worked out at 208%. Further, the EC50 in series [2] is 3.9 nM.
As to `Cn1c(-c2ccc3c(c2)OCO3)cc2onc(-c3ccccc3)c2c1=O`, the Activity in series [1] was 202%. This compound also had an EC50 in series [2] of 0.8 nM.
Regarding `CN(C)Cc1ccc(-c2cc3onc(-c4ccccc4)c3c(=O)n2C)cc1`, the Activity in series [1] worked out at 171%. Moreover, in series [2], the EC50 stood at 26 nM.
